Source: the NIST ThermoML archive (doi:10.1021/acs.jced.5b00838)

Key:
[1] = 101.33 kPa, Liquid, Vibrating tube method
[2] = excess molar enthalpy (molar enthalpy of mixing); xn = mol fraction of the nth substance listed; settings: 100 kPa, Liquid, isothermal titration calorimetry

CCCCCOCCC [1-propoxypentane]
[1]
Settings	mass density [kg/m3]
288.15 K	773.45
293.15 K	769.12
298.15 K	764.78
303.15 K	760.4
308.15 K	756.01
313.15 K	751.6
318.15 K	747.19
323.15 K	742.73

CC#N [acetonitrile]
[1]
Settings	mass density [kg/m3]
298.15 K	776.51
303.15 K	771.06
308.15 K	765.59
313.15 K	760.1
318.15 K	754.56
323.15 K	748.99

CCCOCCC(C)C [3-methyl-1-propoxybutane] + CC#N
[2]
Settings	excess molar enthalpy [kcal/mol]
298.15 K, x2 = 0.0312	0.0349
298.15 K, x2 = 0.0606	0.0693
298.15 K, x2 = 0.0882	0.0976
298.15 K, x2 = 0.1142	0.122
298.15 K, x2 = 0.1388	0.144
298.15 K, x2 = 0.1841	0.178
298.15 K, x2 = 0.2249	0.204
298.15 K, x2 = 0.2618	0.224
298.15 K, x2 = 0.3259	0.253
298.15 K, x2 = 0.3798	0.271
298.15 K, x2 = 0.4258	0.281
298.15 K, x2 = 0.4654	0.286
298.15 K, x2 = 0.5079	0.289
298.15 K, x2 = 0.5442	0.289
298.15 K, x2 = 0.5756	0.287
298.15 K, x2 = 0.6028	0.284
298.15 K, x2 = 0.6559	0.274
298.15 K, x2 = 0.6774	0.269
298.15 K, x2 = 0.6994	0.262
298.15 K, x2 = 0.7186	0.255
298.15 K, x2 = 0.7355	0.248
298.15 K, x2 = 0.7504	0.241
298.15 K, x2 = 0.7638	0.234
308.15 K, x2 = 0.0302	0.0413
308.15 K, x2 = 0.0586	0.0789
308.15 K, x2 = 0.0854	0.11
308.15 K, x2 = 0.1107	0.136
308.15 K, x2 = 0.1347	0.158
308.15 K, x2 = 0.1789	0.195
308.15 K, x2 = 0.2188	0.223
308.15 K, x2 = 0.2551	0.245
308.15 K, x2 = 0.2881	0.262
308.15 K, x2 = 0.3183	0.275
308.15 K, x2 = 0.3716	0.293
308.15 K, x2 = 0.4172	0.304
308.15 K, x2 = 0.4567	0.31
308.15 K, x2 = 0.4992	0.313
308.15 K, x2 = 0.5356	0.313
308.15 K, x2 = 0.567	0.311
308.15 K, x2 = 0.5944	0.307
308.15 K, x2 = 0.6231	0.302
308.15 K, x2 = 0.648	0.295
308.15 K, x2 = 0.6698	0.289
308.15 K, x2 = 0.692	0.281
308.15 K, x2 = 0.7115	0.274
308.15 K, x2 = 0.7146	0.269
308.15 K, x2 = 0.7286	0.266
308.15 K, x2 = 0.7356	0.26
308.15 K, x2 = 0.7438	0.259
308.15 K, x2 = 0.7574	0.252
308.15 K, x2 = 0.7579	0.249
308.15 K, x2 = 0.7816	0.236
308.15 K, x2 = 0.8068	0.219
308.15 K, x2 = 0.8337	0.2
308.15 K, x2 = 0.8507	0.186
308.15 K, x2 = 0.8684	0.17
308.15 K, x2 = 0.8869	0.151
308.15 K, x2 = 0.9061	0.13
308.15 K, x2 = 0.9263	0.107
308.15 K, x2 = 0.9401	0.0886
308.15 K, x2 = 0.9544	0.0689
308.15 K, x2 = 0.9691	0.0474
308.15 K, x2 = 0.9843	0.0234
